Data published in US20260262656A1, “COMPOSITION AND METHOD FOR PROMOTING COLONIZATION OF ARBUSCULAR MYCORRHIZAL FUNGI” (National University Corporation Tottori University, priority 2022, published 2026).

Tests used:
Rhizophagus clarus HR1 = assay: Hyphal branching of a different AM fungus (as in Example 1); format: cell-based; conditions: FIG. 6
Protocol: Essentially the same experiments as described in Example 1 were carried out, except that a different arbuscular mycorrhizal fungus, Rhizophagus clarus HR1, was used. […] The compositions of the present disclosure can increase hyphal branching of diverse arbuscular mycorrhizal fungi included in the order Glomerales besides those exemplified here.

[1] = test system: common broomrape (Orobanche minor) seeds; assay: Bioassay using common broomrape seeds (germination); format: cell-based; conditions: FIG. 5
From the text: The seeds of the genus Orobanche and genus Striga plants, which are root-parasitic weeds, have the property to germinate in response to strigolactones released from the roots of agricultural plants which serve as hosts. These root-parasitic weeds are causing serious damage to crop production worldwide. This poses a hindrance to the external application of strigolactone as an agent for promoting arbuscular mycorrhizal fungus colonization.
Effect of gentiopicroside (GPS) on the germination of common broomrape (Orobanche minor), a parasitic weed of the genus Orobanche, was investigated. Experiments were performed according to the following experimental procedures.
(1) Common broomrape seeds were placed in a nylon mesh that had been shaped into a pouch (2 cm×2 cm×2 cm) by a sealer, and the opening of the pouch was closed.
(2) The seeds, together with the pouch, were placed in a 1% sodium hypochlorite aqueous solution to sterilize the surface for 20 minutes, and then washed 3 times with sterilized water.
(3) The pouch containing the seeds was placed on a filter paper dampened with sterilized water, and allowed to absorb water for 10 days at 25° C. in the dark.
(4) 6 mm paper discs contained in a 96-well plate were moistened by adding 15 μL distilled water dropwise.
(5) A new paper disc was placed on the paper disc of (4) above, and 20 μL of the test solution was added dropwise. Distilled water was used as a negative control (Mock) and 1 μM strigolactone (GR24) as a positive control. For the solvent for GPS, methanol was chosen due to its volatility.
(6) For treating the common broomrape seeds with both GR24 and GPS, one reagent was first added dropwise, and after complete evaporation of the solvent, the other reagent was then added.
(7) After the discs were left for 5 minutes to remove the solvent by evaporation, the common broomrape seeds of (3) above, which had been transferred to distilled water, were added together with the water as 5 μL drops.
(8) After 5 days of culturing at 25° C. in the dark, the germination rates of the common broomrape were measured.

[2] = test system: Arbuscular mycorrhizal fungus Rhizophagus irregularis DAOM197198; assay: Hyphal branching of AM fungus cultured on gel media; format: cell-based; conditions: for hyphal branching activity compared with positive control GR24: GR24 at 100 nM, FIG. 1 and FIG. 2; for activity for promoting hyphal branching (hyphal branch number per spore): concentration range tested 1 to 100 nM, 7-10 days; for activity for promoting hyphal branching (hyphal branch number per spore) / hyphal branch numbers compared to the negative control: Steel test; for hyphal branch numbers compared to the negative control: FIG. 2
Protocol: • Arbuscular mycorrhizal fungus Rhizophagus irregularis DAOM197198 (Premier Tech Biotechnologies)
The spores of the AM fungi were separated and cultured on gels according to the conventional procedures outlined below.
1. In a 50 mL centrifuge tube, Gastrografin aqueous solutions having different densities were gently layered in the order of 50% (10 mL), 32% (5 mL), 16% (5 mL), and 8% (5 mL), and finally 5 mL of a spore suspension of R. irregularis (hereinafter called the AM fungus) was loaded, and centrifugation was performed at 500 g for 10 minutes.
2. The spores separated in the density gradient from the above were collected on a cell strainer and washed with sterilized water 3 times.
3. The spores were suspended in sterilized water at 4000 spores/mL.
4. A 4 μL drop (about 8 spores) each of the spore suspension diluted to 2000 spores/mL was put in the center portion of the M medium (New Phytol. 108:211-218), which had been dispensed in a 24-well plate at 350 μL each.
5. After it was left for 5 minutes to allow excess moisture to evaporate, 200 μL each of 0.3% Phytagel (3 mM MgSO4) at a temperature of about 50° C. was gently poured over the spores. Three to four wells were prepared per treatment group.
6. They were cultured in the dark for 5 days at 25° C. to let the spores germinate in advance.
1. rac-GR24 (hereinafter denoted as GR24), a synthetic strigolactone known to have a hyphal branching activity for the AM fungi, was used as a positive control. From the GR24 stored in acetone, the solvent was removed in vacuo, and GR24 was resuspended in distilled water and sterilized with a 0.45 μm filter.
2. For the other test substances, dry solids were dissolved in distilled water and filter-sterilized as above.
3. 200 μL each of the test solutions was added dropwise onto the Phytagel media comprising the germinated spores obtained in (2) above. The AM fungi were treated using sterilized water as a negative (Mock) control and with GR24 at a final concentration of 100 nM as a positive control.
4. Culturing was performed in the dark for 7-10 days at 25° C.
5. Hyphal branching numbers were measured under a stereomicroscope.
The hyphae that extended and branched directly from the hyphal stem had complex structures and branched well irrespective of the treatment conditions, and therefore they were excluded from the measurements of hyphal branching numbers. […]

[3] = test system: AM fungi colonizing tomato (Solanum lycopersicum L. cv. Sugar Lump) root; assay: AM fungal colonization of host plant root in plant box: tomato; format: in vivo; conditions: 4 weeks, FIG. 4b
Protocol: (§1) To confirm that the identified active compounds not only promote hyphal branching of the AM fungi but also actually lead to increases of colonization and symbiosis with diverse plants, tests were carried out using lisianthus (Eustoma grandiflorum cv. Pink Thumb), tomato (Solanum lycopersicum L. cv. Sugar Lump), and chive (Allium schoenoprasum) as host plants.
(§2) Culturing of the host plants and AM fungal colonization and treatments with the active compounds were performed according to the following procedures. […]
(§3) Colonization rates of the AM fungi were measured according to the following procedures. […]
(§4) (4) Using a light microscope having an ocular lens fitted with an ocular micrometer, the stage was moved perpendicular to the root (in the Y-axis direction), and when the crosshair of the ocular micrometer touched the root, presence or absence of AM fungal hyphae in the root within the field of view was examined. The rate of hyphal invasion, i.e. colonization rate, as a total was calculated according to the following formula. […]
(§5) The rate of arbuscule formation was calculated according to the above formula by replacing the numerator in parentheses, on the right-hand side of the equation, with “number of fields of view in which arbuscules were seen”.

[4] = test system: AM fungi colonizing chive (Allium schoenoprasum) root; assay: AM fungal colonization of host plant root in plant box: chive; format: in vivo
Protocol: as §1, §2, §3, §4
The rate of arbuscule formation was calculated according to the above formula by replacing the numerator in parentheses, on the right-hand side of the equation, with “number of fields of view in which arbuscules were seen”. […]

[5] = test system: AM fungi colonizing lisianthus (Eustoma grandiflorum cv. Pink Thumb) root; assay: AM fungal colonization of host plant root in plant box: lisianthus; format: in vivo; design: AM fungal colonization rates compared with positive control gibberellin (GA): dose or concentration left out as unconfirmed; conditions: for root colonization events compared to the mock treatment: 4 weeks
Protocol: as §1
Culturing of the host plants and AM fungal colonization and treatments with the active compounds were performed according to the following procedures.
(1) Plant box was assembled in 3 tiers: the top tier served as a lid having openings for ventilation, the middle tier was a box to which the culture soil (300 mL river sand) had been added, and the bottom tier was an empty box.
(2) The plant box of (1) above was sterilized by autoclaving (121° C., 20 minutes).
(3) To the culture soil of the middle box, 1000 spores of the AM fungi and 50 mL of the Hoagland hydroponic solution at a 1/10 concentration were added, and stirred with forceps. The active compounds such as GPS were added to the Hoagland hydroponic solution to treat the AM fungi and host plants.
(4) In order to prevent drying of the culture soil, 50 mL of the Hoagland hydroponic solution at a 1/10 concentration was also added to the bottom box. A twisted piece of KimWipe was placed through a hole provided at the bottom of the middle box, with the lower tip of the Kim Wipe soaked into the solution in the bottom box, and therefore the culture soil was maintained without becoming dry.
(5) Six seedlings of each host plant were planted per plant box, and cultured for 4 weeks in a culture chamber set at 24° C. and 14 hour light cycle.
(6) After completing the culturing period above, the root of each host plant was sampled and preserved in an FAA fixative solution.
Colonization rates of the AM fungi were measured according to the following procedures.
(1) The root fixed in said fixative solution was cut into 1 cm fragments and immersed in a 10% KOH aqueous solution, and heated at 90° C. for 15 minutes. […]
as §4, §5

| Compound | hyphal branching (Rhizophagus clarus HR1) | hyphal branching activity compared with positive control GR24 [2] | activity for promoting hyphal branching (hyphal branch number per spore) ([2]; FIG. 1) | hyphal branch numbers compared to the negative control [2] | other results |
| --- | --- | --- | --- | --- | --- |
| CC1=C[C@H](O/C=C2/C(=O)O[C@@H]3c4ccccc4C[C@H]23)OC1=O (racemic) [GR24, rac-GR24, reference compound] | – | – | – | – | hyphal branching (Rhizophagus clarus HR1; positive control, 100 nM): significant increases; germination rate of the common broomrape seeds ([1]; 1 μM GR24, 5 days at 25° C. in the dark): ~100%; hyphal branch number per spore compared to the Mock treatment ([2]; positive control, 100 nM, 7-10 days at 25° C. in the dark, FIG. 1): significant increase |
| C=C[C@@H]1C2=CCOC(=O)C2=CO[C@H]1O[C@@H]1O[C@H](CO)[C@@H](O)[C@H](O)[C@H]1O [GPS, Gentiopicroside] | significant increases | comparable to or greater than that of GR24 | significantly high activities for promoting hyphal branching | – | GPS concentration giving maximum average colonization rate of the AM fungi [3]: 100 nM; AM fungal colonization rate ([4]; 1 nM (lowest concentration tested), Dunnett's test): statistically significant increase; GPS concentration giving maximum average colonization rate of the AM fungi ([4]; 4 weeks, FIG. 4c): 10 nM; germination of the common broomrape seeds ([1]; 1 to 1000 nM GPS alone, 5 days at 25° C. in the dark): did not germinate at all; germination rates of the common broomrape seeds ([1]; GPS treatment in the concurrent presence of GR24 treatment): ~100%; root colonization events compared to the mock treatment ([5]; 10 nM, Dunnett's test): statistically significant increase; root colonization events compared to the mock treatment ([5]; GPS treatments, FIG. 4a): increasing trend; outside-of-root hyphae of the AM fungi in the rhizosphere ([5]; GPS treatments, FIG. 4a, left): vigorously branching; AM fungal colonization rates compared with positive control gibberellin (GA) ([5]; positive control gibberellin): overall lower |
| COC(=O)C1=CO[C@@H](O[C@@H]2O[C@H](CO)[C@@H](O)[C@H](O)[C@H]2O)[C@@H]2C(CO)=CC[C@H]12 [Geniposide] | – | lower activities compared to GR24 and Loganin | – | increased the hyphal branch numbers significantly | – |
| COC(=O)C1=CO[C@@H](O[C@@H]2O[C@H](CO)[C@@H](O)[C@H](O)[C@H]2O)[C@@H]2[C@@H](C)[C@@H](O)C[C@H]12 [Loganin] | – | comparable to those of Gentiopicroside and Swertiamarin and the positive control GR24 | – | had the activity for the AM fungi to promote hyphal branching | – |
| C=C[C@H]1[C@H](O[C@@H]2O[C@H](CO)[C@@H](O)[C@H](O)[C@H]2O)OC=C2C(=O)OCC[C@]21O [SWM, Swertiamarin] | significant increases | comparable to or greater than that of GR24 | significantly high activities for promoting hyphal branching | – | – |
| Oleuropein | – | lower activities compared to GR24 and Loganin | – | increased the hyphal branch numbers significantly | – |
